From patent US5587463A, “Texaphyrin macrocycles and metal complexes thereof” (Board of Regents, The University of Texas System, priority 1994, dated 1996)
Entries after “also recorded” stand apart in the source; their conditions may differ. Where two headings read alike, the source gives them in different places.

Tests used:
[1] = Stability of free-base macrocycle; assay type: physicochemical
[2] = tested on: enveloped viruses (HSV-1, cytomegalovirus, measles virus, HIV-1); details: previous studies; cited from earlier work
[3] = 1:1 methanol/water
[4] = Imine hydrolysis half-life by pH
[5] = Stability in methanol/water or water (decomplexation, decomposition)
[6] = tested on: lymphocytes; assay: Localization on lymphocytes by absorption and emission measurements; assay type: cell-based
From the text: (§1) Several preliminary in vitro biological studies have been carried out with the cadmium(II) complexes of the 18 and 22 π-electron texaphyrins 14D and 5D. […] This latter result, in particular, augurs well for the eventual use of these materials in prophylactic photodynamic anti-AIDS blood-treatment programs. The 2 log decrease in HSV-1 activity achieved with the texaphyrin systems studied to date is not yet sufficient to completely design a viable protocol: Both HPD and PII, as well as sapphyrin (6D) , reprepared by literature methods^70 provide about a 5 log decrease in viral activity under similar light fluence when irradiated at the appropriate lowest energy transition (630 and 690 nm, respectively). Although a mechanistic comparison with the incompletely characterized hematoporphyrin-derived systems is difficult, a direct structural correspondence exists between the tripyrroledimethine-derived cadmium(II) texaphyrin and free-base sapphyrin systems: The main difference is in overall charge on the photosensitizer. It may thus be that these two macrocycle types are bound to the virus envelope in a different manner; perhaps the sapphyrin "intercalates" into the lipid layer and the charged metallotexaphyrin sits on the surface of the membrane and as such could suffer from deleterious aggregations (which would lower singlet oxygen production).

[7] = Cytotoxicity in the absence of light; assay type: cell-based; details: preliminary
From the text: In addition, some preliminary toxicity and stability information will begin to emerge from these in vitro experiments.

[8] = tested on: HSV-1; assay: Preliminary in vitro photo-killing of HSV-1 infectivity; assay type: cell-based
From the text: as §1

[9] = tested on: lymphocyte; assay: Preliminary in vitro lymphocyte mitogenic activity study in 10% human serum; assay type: cell-based; details: irradiation at 767 nm
From the text: (§2) In summary, the new metallotexaphrin complexes discussed here show three important optical properties which make them unique among existing porphyrin-like macrocycles. They absorb strongly in a physiologically important region (i.e. 730-770 nm), form long-lived triplet states in high yield, and act as efficient photosensitizers for the formation of singlet oxygen (see, e.g. FIG. 21).

[10] = Optical and photophysical properties of metallotexaphyrins (laser flash photolysis, fluorescence, singlet oxygen luminescence); assay type: physicochemical; set-up: tt (triplet lifetime): unit not given here; details: CH3 OH
From the text: Finally, several complexes containing paramagnetic metal ions (e.g. Mn^II, Sm^III, and Eu^III, structures 5c -7c) were investigated.
Comparison of the initial intensity with that obtained using tetrakis (4-hydroxyphenyl)porphyrin (THPP) as photosensitizer^3b under identical conditions allowed calculation of the quantum yields for production of singlet oxygen (^.phi. 1.cndot.2).

[11] = tested on: herpes simplex (HSV-1); assay: Preliminary in vitro HSV-1 infectivity study in 10% human serum; assay type: cell-based; details: irradiation at 767 nm
From the text: as §2

[12] = tested on: rapidly growing tissues including sarcomas and carcinomas; details: in vivo; cited from earlier work
[13] = Stability to demetallation (sulfide, thiosulfate); assay type: physicochemical; details: aqueous Na2 S / excess sulfide anion
From the text: The above K1 and K2 (or K1 K2) values are predicated on the assumption that the cadmium complexes under discussion are stable with regards to demetallation and that the equilibria of equations 1 and 2 (or 3) pertain under the conditions of base binding. The first of these concerns is readily apparent: If demetallation occurs, then obviously one is not studying base binding! […] The second concern is particularly important within the context of quantitative work: If, for instance, the starting complex 3.cndot.NO3 is not rigorously five coordinate, then K1 (and perhaps K2 as well) would represent an axial ligand displacement reaction rather than a pure addition process as implied above. Control experiments indicate that the assumption of initial five coordination is reasonable: Independent titrations of 3A .cndot.NO3 with NH4 NO3 and H2 O indicate that only modest and monotonic changes in the chemical shift of the "meso" signals take place over the course of adding ≥50 equivalents of these potentially adventitious ligands.^40 This means that either "complete" binding occurs at 1:1 stoichiometry (essentially ruled out in the case of H2 O on the basis of analytical data), or that these species are poorly coordinating in CHCl3 so that five coordination pertains about cadmium; the latter interpretation appearing more likely.
Attempts to demetallate complex 3A .cndot.NO3 were made. In an effort to obtain the free sp^2 bridged ligand 2A, the above complex in chloroform was stirred for several hours in the presence of sodium sulfide and independently with sodium thiosulfate. […] In the case of sodium sulfide, this critical conclusion was further supported by FAB MS: Other than the starting cationic complex 3A, no evidence was obtained for any moderate to high molecular weight volatile products in the mass spectrum. […] The rate of this process, however, is strongly pH dependent, the half-life being, for instance, on the order of several hours in the presence of ca. 0.1N HCl.

[14] = benzene, cited from earlier work

For `CCC1=C(C)c2cnc3ccccc3ncc3nc(cc4[nH]c(cc1n2)c(CC)c4CC)C(CC)=C3C` [compound 2, 4,5,9,24-tetraethyl-10,23-dimethyl-13,20,25,26,27-pentaazapentacyclo [20.2.1.1^3,6.1^8,11.0^14,19] heptacosa-1,3,5,7,9,11(27), 12,14,16,18,20,22 (25),23-tridecaene], the “stability of free-base relative to compound 1” value [1] was “undergoes decomposition far more slowly than compound 1”.

In the case of dihematoporphyrin ether [DHE], the inactivation of viruses [2] is given as “only those viruses studied which are enveloped or possess a membraneous coat are inactivated”.

In the case of `CCC1=C(C)C2=[N+]3C1=Cc1c(CC)c(CC)c4[n]1[Gd-2]315[N+](=C2)c2cc(C)c(C)cc2[N+]1=CC1=[N+]5C(=C4)C(CC)=C1C.[OH-].[OH-]` [complex 7B], the half-life [3] is reported as “over 5 weeks”, the “half-life for decomplexation and/or decomposition” value [3] is reported as no less than 100 days and the “bleaching of the Soret and Q-type bands” value ([3]; 336 h, 35 µM) is reported as “less than 10%”. The “half-life for imine hydrolysis” value (pH 2) was “several hours” and the “half-life for imine hydrolysis” value (pH 7) was greater than 30 days.

With `CCC1=C(C)c2cnc3ccccc3ncc3nc(cc4[n-]c(cc1n2)c(CC)c4CC)C(CC)=C3C.[Cd+2]` [complex 2B] the “half-life for imine hydrolysis” value ([4]; pH 2) was “several hours” and the “half-life for imine hydrolysis” value ([4]; pH 7) was greater than 30 days.

In the case of `CCC1=C(C)c2cnc3ccccc3ncc3nc(cc4[n-]c(cc1n2)c(CC)c4CC)C(CC)=C3C.[In+3]` [In^3+ complex of texaphyrin], the “hydrolytic stability (in words)” value [5] is reported as “kinetically and hydrolytically stable” and the “half-lives for decomplexation and/or ligand decomposition” value ([5]; 1:1 methanol-water) is reported as “exceed 3 weeks”.

For `CCC1=C(C)c2cnc3ccccc3ncc3nc(cc4[nH]c(cc1n2)c(CC)c4CC)C(CC)=C3C` [5D], the localization on lymphocytes [6] was “localize selectively on lymphocytes”, the general cytotoxicity [7] was “nor, fortunately, do they show much evidence of general cytotoxicity in the absence of light” and the “photo-killing of HSV-1 infectivity” value ([8]; 20 J/cm^2 at lowest energy absorption (690 nm for 14D, 767 nm for 5D)) was “ca. 2 log”. For the same compound, the dark antiviral activity ([8]; dark) was “neither 5D nor 14D show any appreciable dark antiviral activity”.

With `CCC1=C(C)c2cnc3ccccc3ncc3nc(cc4[n-]c(cc1n2)c(CC)c4CC)C(CC)=C3C.O=[N+]([O-])[O-].[Cd+2]` [3C NO3] the lymphocyte mitogenic activity [9] was “significant decrease”, the Emission gmax [10] was 780 nm and the “S (= phi 1O2 / phi t)” value [10] was 0.78. For the same compound, the “tt (triplet lifetime)” value ([10]; deoxygenated) was 55, the “Absorption gmax (Soret-type band)” value ([10]; first value (Soret)) was 417 nm and the “Absorption gmax (Q-type band)” value ([10]; second value (Q-type)) was 759 nm. The “Dt (triplet quantum yield)” value ([10]; ±5%) was 0.88, the “D^1 O2 (singlet oxygen quantum yield)” value ([10]; ±10%) was 0.69 and the “Df (fluorescence quantum yield)” value ([10]; ±10%) was 0.011. For the same compound, the HSV-1 infectivity [11] was “significant decrease”.

In the case of `CCc1c(CC)c2cc3nc(cc4[nH]c(c(C)c4CC)c4[nH]c(cc5nc(cc1[nH]2)C(CCC(=O)N(CCO)CCO)=C5C)c(CC)c4C)C(C)=C3CCC(=O)N(CCO)CCO` [6D, reference compound], the “decrease in viral activity” value ([8]; similar light fluence, at lowest energy transition (630 and 690 nm, respectively)) is reported as roughly 5 log.

In the case of `CCC1=C(C)c2cnc3ccccc3ncc3nc(cc4[n-]c(cc1n2)c(CC)c4CC)C(CC)=C3C.[Cd+2]` [cadmium(II) complex of 5D], the general cytotoxicity [7] is reported as “not appreciable cytotoxic”.

For `CC1=C(CCC(=O)O)c2cc3[nH]c(cc4nc(cc5[nH]c(cc1n2)c(C)c5C(C)O)C(C)=C4C(C)O)c(C)c3CCC(=O)O` (stereo not shown) [hematoporphyrin], the “localization in rapidly growing tissues” value [12] is listed as “localize selectively in rapidly growing tissues including sarcomas and carcinomas”.

In the case of “cadmium tetraphenyl porphyrin [CdTPP, reference compound]”, the demetallation by sulfide [13] is given as “serves to demetallate CdTPP; also recorded: leads to cation loss and precipitation of CdS”, the Kd ([14]; 29.9°, read-out: K1 (single pyridine axial ligand) (converted)) is given as roughly 370 µM and the “formation of bisligated species” value ([14]; pyridine-containing) is given as “no evidence for the formation of a bisligated CdTPP-(pyr)2”.
